Experimental data as given in publication PMC10318456, “Selective inhibitors of the PSEN1–gamma-secretase complex” (The Journal of Biological Chemistry, 2023).

Experiments:
Assay type in all cases: cell-based
[1] = target: T1, PSEN1-APH1A γ-secretase complex (Homo sapiens, UniProt P49768); assay: Aβ40 secretion by MEF cell line expressing only PSEN1-APH1A γ-secretase (APP-C99-GFP reporter); conditions: 8 h, Beerse site unless otherwise indicated, read-out: IC50, Aβ40 peptides
T1 construct: expressed in transfected cells; host or cells: Psen1/2 double KO/Aph1ABC triple KO MEFs, pMSCV retroviral PSEN-IRES-APH1
Description: (§1) Mouse embryonic fibroblast (MEF) cells deficient for the Psen and Aph1 genes (Psen1/2^−/−, Aph1ABC^−/−) were reconstituted with human PSEN1 or PSEN2 and with human APH1A or APH1B to generate four independent cell lines, each constitutively expressing exclusively one type of γ-secretase complex (Fig. S1A) ([19]). A human APP-C99-GFP reporter was introduced to enable the measurement of Aβ peptides in the conditioned media of the cells to monitor γ-secretase activity. The assay was established in a 96-well format.
(§2) Conditional Psen1/2 double KO mice were crossed with conditional Aph1ABC triple KO mice ([29], [52], [58], [59]). At embryonic day 7.5, embryos were dissected and dissociated, and cells were plated in the presence of Dulbecco’s modified Eagle’s medium (DMEM)/F12 50% fetal calf serum (FCS) (Invitrogen). Primary MEFs were immortalized by transduction with LargeT antigen. Psen1/2 double KO/Aph1ABC triple KO MEFs were generated by transduction with a Cre-GFP–expressing adenoviral vector, and GFP-positive MEFs were sorted by fluorescence-activated cell sorting analysis. Psen1/2 Aph1ABC-deficient MEFs were maintained in DMEM/f12 10% FCS. To rescue γ-secretase expression, Psen1/2 double KO/Aph1ABC triple KO MEFs were transduced using Murine Stem Cell Virus retroviral vector system (pMSCV) viral vectors (Clontech) containing the human coding sequences of the different PSEN and APH1 homologs and the zeocin selection marker. An Internal Ribosome Entry Site sequence was cloned between the coding sequences for PSEN and APH1 to ensure co-expression of both proteins. Stable transfected cell lines were selected using 500-μg/ml zeocin (Invitrogen). Four different combinations were made: PSEN1 and APH1AL, PSEN1 and APH1B, PSEN2 and APH1AL, and PSEN2 and APH1B. These cell lines were transduced with pMSCV viral vectors (Clontech) expressing APP-C99-GFP-puromycin. After puromycin selection (5 μg/ml), GFP-positive cells were selected through FACS sorting. For the alanine mutagenesis experiment, pMSCV PSEN1-APH1A viral vectors were generated by using a long PCR-based QuikChange strategy (Stratagene). Stable cell lines without clonal selection were generated for each mutant as described above. All cell lines were regularly tested for the absence of mycoplasma and used for maximum 20 passages in culture.
The number of plated cells and incubation times were determined in respect to linearity of Aβ peptide secretion, the dynamic range of Aβ peptide quantification in the medium, and sensitivity to dimethylsulfoxide (DMSO). […] The cell viability was assessed using the CellTiter-Glo Luminescent assay (Promega) that measures ATP production. […]

[2] = target: T2, PSEN1 L172A–APH1A γ-secretase complex (Homo sapiens, UniProt P49768+Q92542+Q96BI3+Q9NZ42, L172A); assay: Aβ40 secretion, MEF cell pool restored with PSEN1 L172A–APH1A; conditions: PSEN1 L172A (TM3)–APH1A cell pool; N = 3 to 4; mean (95% CI); decimal comma
T2 construct: expressed in transfected cells; host or cells: Psen1/2 double KO/Aph1ABC triple KO MEFs, pools without clonal selection
Protocol: (§3) We turned to experimental site–directed mutagenesis and selected a series of amino acids (Fig. 3) in the entrance channel for mutation to alanine. […] More importantly, they were all enzymatically active as shown by the secretion of Aβ40 in the supernatants of the cell cultures (Fig. 3B).
as §2
(§4) The number of plated cells and incubation times were determined in respect to linearity of Aβ peptide secretion, the dynamic range of Aβ peptide quantification in the medium, and sensitivity to dimethylsulfoxide (DMSO). […] MEF cells were plated in DMEM F12 supplemented with 10% FCS at 10,000 cells per well in 96-well clear bottom plates in the late afternoon and cultured for 16 h at 37 °C, 5% CO2. In the morning of the second day, the medium was replaced with 60 μl of DMEM/F12 supplemented with 2% FCS, and GSI or DMSO (controls) were added. Compounds were tested in serial dilutions with concentrations ranging from […] to 0.1 nM with 3-fold changes. The final concentration of DMSO in all wells was 0.2%. Plates were put in the incubator again at 37 °C, 5% CO2. After 8 h, the culture media were collected, and 30 μl was used to measure Aβ40 peptides. The cell viability was assessed using the CellTiter-Glo Luminescent assay (Promega) that measures ATP production. All screens were performed at one site, and reported IC50 values throughout the manuscript are from this site (Beerse) unless otherwise indicated. We however measured five compounds at the Leuven site and noticed that absolute IC50 values were different (Fig. S2). The main goal of the current work is to explore the basis for inhibitor selectivity for different γ-secretases, and selectivity was consistent in the assays at the two sites (Fig. S2).
Standard 96-well SECTOR plates (MSD) were coated with 1.5 μg/ml anti-Aβ JRFcAβ40/28 capture antibody in a final volume of 50 μl of PBS 0.05% Tween 20. After overnight incubation at 4 °C, the plates were five times rinsed with PBS 0.05% Tween 20 and blocked with 150 μl per well of casein buffer (PBS with 1% casein, pH 7.4) for 4 h at room temperature. Standards (synthetic human Aβ 1–40) were diluted in culture media. […]

[3] = target: T3, PSEN1 Y154A–APH1A γ-secretase complex (Homo sapiens, UniProt P49768+Q92542+Q96BI3+Q9NZ42, Y154A); assay: Aβ40 secretion, MEF cell pool restored with PSEN1 Y154A–APH1A; conditions: PSEN1 Y154A (TM2)–APH1A cell pool; N = 3 to 4; mean (95% CI); decimal comma
T3 construct: expressed in transfected cells; host or cells: Psen1/2 double KO/Aph1ABC triple KO MEFs, pools without clonal selection
Protocol: as §3
as §2, with “After puromycin selection (5 μg/ml), GFP-positive cells were selected through FACS sorting. For the alanine mutagenesis experiment, pMSCV PSEN1-APH1A viral vectors were generated by using a long PCR-based QuikChange strategy (Stratagene). Stable cell lines without clonal selection were generated for each mutant as described above. All cell lines were regularly tested for the absence of mycoplasma and used for maximum 20 passages in culture.” left out
(§5) The number of plated cells and incubation times were determined in respect to linearity of Aβ peptide secretion, the dynamic range of Aβ peptide quantification in the medium, and sensitivity to dimethylsulfoxide (DMSO). […] The cell viability was assessed using the CellTiter-Glo Luminescent assay (Promega) that measures ATP production. […] We however measured five compounds at the Leuven site and noticed that absolute IC50 values were different (Fig. S2). […]

[4] = target: T4, PSEN1-APH1B γ-secretase complex (Homo sapiens, UniProt P49768); assay: Aβ40 secretion by MEF cell line expressing only PSEN1-APH1B γ-secretase (APP-C99-GFP reporter); conditions: 8 h, Beerse site unless otherwise indicated, read-out: IC50, Aβ40 peptides
T4 construct: expressed in transfected cells; host or cells: Psen1/2 double KO/Aph1ABC triple KO MEFs, pMSCV retroviral PSEN-IRES-APH1
Description: as §1, §2
as §4, with “indicated.” for “indicated. We however measured five compounds at the Leuven site and noticed that absolute IC50 values were different (Fig. S2). The main goal of the current work is to explore the basis for inhibitor selectivity for different γ-secretases, and selectivity was consistent in the assays at the two sites (Fig. S2).”
Standard 96-well SECTOR plates (MSD) were coated with 1.5 μg/ml anti-Aβ JRFcAβ40/28 capture antibody in a final volume of 50 μl of PBS 0.05% Tween 20.

[5] = target: T5, PSEN1 Y154A–APH1A γ-secretase complex (Homo sapiens, UniProt P49768, Y154A); assay: Aβ40 secretion, MEF cell pool restored with PSEN1 Y154A–APH1A; conditions: decimal comma
T5 construct: expressed in transfected cells; host or cells: Psen1/2 double KO/Aph1ABC triple KO MEFs, pools without clonal selection
Protocol: as §3
as §2, with “After puromycin selection (5 μg/ml), GFP-positive cells were selected through FACS sorting. For the alanine mutagenesis experiment, pMSCV PSEN1-APH1A viral vectors were generated by using a long PCR-based QuikChange strategy (Stratagene). Stable cell lines without clonal selection were generated for each mutant as described above. All cell lines were regularly tested for the absence of mycoplasma and used for maximum 20 passages in culture.” left out
as §5

SMILES	IC50 [1] [nM]	IC50 [2] [µM]	IC50 [3] [µM]	IC50 [4] [nM]	IC50 ([5]; PSEN1 Y154A (TM2)–APH1A cell pool, N = 3 to 4, mean (95% CI)) [µM]	IC50 fold change to WT ([5]; PSEN1 Y154A–APH1A cell pool)
O=S(=O)(c1ccc(Cl)cc1)N1[C@H]2CC[C@@H]([C@H]1c1ccc(C(F)(F)F)cc1)[C@@H](O)C2 [(+)-9b]	22	0.0094	1.03	6		
C[C@H](NC(=O)Cc1cc(F)cc(F)c1)C(=O)N[C@H](C(=O)OC(C)(C)C)c1ccccc1 [DAPT]					0.103	0,611 fold
